According to PubChem BioAssay (NCI):
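How tested: cells in 96-well plates exposed to compound for 48 hours at five concentrations. The concentration for 50% growth inhibition is given as GI50. At the TGI there is no net growth.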 *1 amine or outer side, *2 acyl side, *3 side chain or, on linkers, in order; H or OH if unused. Where a SMILES comes first, the peptide text is derived from it. Bridges are numbered along the chain shown (N, C = ends). [ ]: non-standard residue; d: D form. The star is where a group is joined. Phe(3,5-F2) = N[C@@H](Cc1cc(F)cc(F)c1)C(=O)O; Pro(4R-Me) = C[C@H]1CN[C@H](C(=O)O)C1; aThr = C[C@H](O)[C@H](N)C(=O)O; Pip = O=C(O)[C@@H]1CCCCN1; X10 = Fc1cc(C2CC2)ccc1N*; Abu = CC[C@H](N)C(=O)O; CO = O=C([*:1])[*:2]

Assays:
Test in all cases: inhibition of tumour cell growth, NCI panel, 48 h
[1] = tested on: NCI-H23 lung
[2] = tested on: HT29 colon
[3] = tested on: ACHN renal
[4] = tested on: U251 CNS
[5] = tested on: UACC-257 melanoma
[6] = tested on: SK-MEL-5 melanoma
[7] = tested on: MDA-MB-435
[8] = tested on: COLO 205 colon
[9] = tested on: HCT-116 colon
[10] = tested on: OVCAR-8 ovarian
[11] = tested on: HCT-15 colon
[12] = tested on: SN12C renal
[13] = tested on: HL-60(TB) leukemia
[14] = tested on: RXF 393 renal
[15] = tested on: NCI-H226 lung
[16] = tested on: K-562 leukemia
[17] = tested on: A498 renal
[18] = tested on: RPMI-8226 leukemia
[19] = tested on: IGROV1 ovarian
[20] = tested on: M14 melanoma
[21] = tested on: EKVX NSCLC
[22] = tested on: SF-295 CNS
[23] = tested on: DU-145 prostate
[24] = tested on: SK-OV-3 ovarian
[25] = tested on: MCF7 breast
[26] = tested on: NCI-H460 lung
[27] = tested on: OVCAR-3 ovarian
[28] = tested on: NCI-H522 lung
[29] = tested on: A549 NSCLC

Work on `CC[C@@H]1NC(=O)[C@@H]2CCCCN2C(=O)[C@@H]2CCCN2C(=O)[C@@H](NC(=O)[C@H](Cc2cc(F)cc(F)c2)NC(=O)Nc2ccc(C3CC3)cc2F)[C@H](C)OC(=O)[C@@H]2C[C@@H](C)CN2C1=O` ({X10-CO}-[Phe(3,5-F2)][aThr]P[Pip][Abu][Pro(4R-Me)]; ester 2-C) yielded a GI50 [1] of 65.9 nM, a TGI [1] of over 28600 nM and a GI50 [2] of 70.9 nM. It also gave a TGI [2] of 5490 nM, a GI50 [3] of 237 nM and a TGI [3] of 6840 nM. The GI50 [4] was 52.4 nM, the TGI [4] was over 56600 nM and the GI50 [5] was 48.3 nM. For the same molecule, the TGI [5] was 6260 nM, the GI50 [6] was 59.2 nM and the TGI [6] was 1210 nM. For the same molecule, the GI50 [7] was 49 nM, the TGI [7] was 1720 nM and the GI50 [8] was 39.7 nM. The TGI [8] was 1290 nM, the GI50 [9] was 42.7 nM and the TGI [9] was 1610 nM. The GI50 [10] was 42.7 nM, the TGI [10] was over 100000 nM and the GI50 [11] was 220 nM. The TGI [11] was 2250 nM, the GI50 [12] was 42.9 nM and the TGI [12] was over 33800 nM. It also gave a GI50 [13] of 39.9 nM, a TGI [13] of 1650 nM and a GI50 [14] of 419 nM. It also gave a TGI [14] of 2790 nM, a GI50 [15] of 63.2 nM and a TGI [15] of 2570 nM. The GI50 [16] was 39.1 nM, the TGI [16] was over 100000 nM and the GI50 [17] was 32 nM. The TGI [17] was 1060 nM, the GI50 [18] was 32.3 nM and the TGI [18] was 1670 nM. It also gave a GI50 [19] of 223 nM, a TGI [19] of over 36700 nM and a GI50 [20] of 50.1 nM. It also gave a TGI [20] of 1860 nM, a GI50 [21] of 76.7 nM and a TGI [21] of over 100000 nM. The GI50 [22] was 55.2 nM, the TGI [22] was 1540 nM and the GI50 [23] was 59.3 nM. The TGI [23] was over 100000 nM, the GI50 [24] was 64.2 nM and the TGI [24] was 9830 nM. For the same molecule, the GI50 [25] was 43.7 nM, the TGI [25] was 14900 nM and the GI50 [26] was 45.9 nM. The TGI [26] was 2620 nM, the GI50 [27] was 46.3 nM and the TGI [27] was 2030 nM. It also gave a GI50 [28] of 56 nM, a TGI [28] of 8480 nM and a GI50 [29] of 62.5 nM.
